Values belong to the compound of their own block, whether it stands above or below them.
Legend:
[1] = target: T1, Equilibrative nucleoside transporter 1 (Homo sapiens, UniProt Q99808); test: Inhibition of human ENT1 transfected in nucleoside transporter-deficient pig PK-15 cells assessed as inhibition of [3H]-uridine uptake by liquid scintillation counter analysis; assay type: cell-based
T1 sequence (Q99808 whole entry): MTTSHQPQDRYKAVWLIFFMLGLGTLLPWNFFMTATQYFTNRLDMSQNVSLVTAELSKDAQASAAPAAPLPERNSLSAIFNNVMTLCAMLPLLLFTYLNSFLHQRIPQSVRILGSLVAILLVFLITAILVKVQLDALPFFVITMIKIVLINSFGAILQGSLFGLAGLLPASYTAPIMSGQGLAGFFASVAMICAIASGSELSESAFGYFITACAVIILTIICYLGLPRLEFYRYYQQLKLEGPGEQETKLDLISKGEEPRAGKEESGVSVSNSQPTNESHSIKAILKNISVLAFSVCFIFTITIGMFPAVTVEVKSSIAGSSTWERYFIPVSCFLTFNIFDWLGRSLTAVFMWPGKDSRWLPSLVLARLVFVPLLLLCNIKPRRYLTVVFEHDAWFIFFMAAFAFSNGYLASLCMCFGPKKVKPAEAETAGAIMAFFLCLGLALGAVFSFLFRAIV

[2] = target: T2, Equilibrative nucleoside transporter 2 (Homo sapiens, UniProt Q14542); test: Inhibition of human ENT2 transfected in nucleoside transporter-deficient pig PK-15 cells assessed as inhibition of [3H]-uridine uptake by liquid scintillation counter analysis; assay type: cell-based
T2 sequence (Q14542 whole entry): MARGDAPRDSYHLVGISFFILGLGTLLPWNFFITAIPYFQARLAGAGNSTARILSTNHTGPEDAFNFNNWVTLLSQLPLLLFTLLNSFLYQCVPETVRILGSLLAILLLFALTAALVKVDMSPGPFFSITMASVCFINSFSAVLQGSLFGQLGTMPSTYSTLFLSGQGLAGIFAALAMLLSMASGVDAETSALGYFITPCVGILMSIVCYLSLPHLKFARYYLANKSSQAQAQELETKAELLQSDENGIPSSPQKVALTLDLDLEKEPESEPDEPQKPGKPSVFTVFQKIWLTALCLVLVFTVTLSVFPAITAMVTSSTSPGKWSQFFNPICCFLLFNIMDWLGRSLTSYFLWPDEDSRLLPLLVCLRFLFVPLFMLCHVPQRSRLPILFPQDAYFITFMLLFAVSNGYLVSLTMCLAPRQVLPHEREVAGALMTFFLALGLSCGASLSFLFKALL

[3] = Cytotoxicity against […] cells assessed as cell growth inhibition measured after 72 hrs by CellTiter-Glo assay; assay type: functional, cell-based; settings: Hepa1-6, 72 h
[4] = Cytotoxicity against human Hepa 1-6/R cells assessed as cell growth inhibition measured after 72 hrs by CellTiter-Glo assay; assay type: functional, cell-based
[5] = Cytotoxicity against human IM-9 cells assessed as cell growth inhibition; assay type: toxicity, cell-based
[6] = tested on: Jurkat; test: Cytotoxicity against human Jurkat cells assessed as cell growth inhibition; assay type: functional, cell-based
[7] = tested on: Daudi; test: Cytotoxicity against human Daudi cells assessed as cell growth inhibition; assay type: functional, cell-based
[8] = tested on: HL-60; test: Cytotoxicity against human HL-60 cells assessed as cell growth inhibition; assay type: functional, cell-based
[9] = tested on: MCF7; test: Cytotoxicity against human MCF7 cells assessed as cell growth inhibition; assay type: functional, cell-based
[10] = tested on: DU-145; test: Cytotoxicity against human DU-145 cells assessed as cell growth inhibition; assay type: functional, cell-based
[11] = Cytotoxicity against mouse LL2 cells assessed as cell growth inhibition; assay type: functional, cell-based; settings: Lewis lung carcinoma
[12] = tested on: SK-OV-3; test: Cytotoxicity against human SK-OV-3 cells assessed as cell growth inhibition; assay type: functional, cell-based
[13] = Cytotoxicity against human MHOC-59 cell assessed as cell growth inhibition; assay type: functional, cell-based
[14] = tested on: AN3-CA; test: Cytotoxicity against human AN3-CA cells assessed as cell growth inhibition; assay type: functional, cell-based
[15] = tested on: HEC-1-A; test: Cytotoxicity against human HEC-1-A cells assessed as cell growth inhibition; assay type: functional, cell-based
[16] = tested on: K562; test: cells; settings: Homo sapiens
Description: Cytotoxicity against human K562 cells assessed as cell growth inhibition

[17] = tested on: A-427; test: Cytotoxicity against human A-427 cells assessed as cell growth inhibition measured after 96 hrs by microplate reader analysis; assay type: functional, cell-based; settings: A-427, 96 h
[18] = tested on: DAN-G; test: Cytotoxicity against human DAN-G cells assessed as cell growth inhibition measured after 96 hrs by microplate reader analysis; assay type: functional, cell-based
[19] = tested on: LCLC; test: Cytotoxicity against human LCLC cells assessed as cell growth inhibition measured after 96 hrs by microplate reader analysis; assay type: functional, cell-based
[20] = tested on: SISO; test: Cytotoxicity against human SISO cells assessed as cell growth inhibition measured after 96 hrs by microplate reader analysis; assay type: functional, cell-based
[21] = tested on: RT-4; test: Cytotoxicity against human RT-4 cells assessed as cell growth inhibition measured after 96 hrs by microplate reader analysis; assay type: functional, cell-based; settings: RT-4, 96 h
[22] = target: 5-hydroxytryptamine receptor 6 (Homo sapiens, UniProt P50406); test: Displacement of [3H]-LSD from human 5-HT6R expressed in HEK293 cells by radioligand binding assay; assay type: cell-based
Sequence of 5-hydroxytryptamine receptor 6 (P50406 whole entry): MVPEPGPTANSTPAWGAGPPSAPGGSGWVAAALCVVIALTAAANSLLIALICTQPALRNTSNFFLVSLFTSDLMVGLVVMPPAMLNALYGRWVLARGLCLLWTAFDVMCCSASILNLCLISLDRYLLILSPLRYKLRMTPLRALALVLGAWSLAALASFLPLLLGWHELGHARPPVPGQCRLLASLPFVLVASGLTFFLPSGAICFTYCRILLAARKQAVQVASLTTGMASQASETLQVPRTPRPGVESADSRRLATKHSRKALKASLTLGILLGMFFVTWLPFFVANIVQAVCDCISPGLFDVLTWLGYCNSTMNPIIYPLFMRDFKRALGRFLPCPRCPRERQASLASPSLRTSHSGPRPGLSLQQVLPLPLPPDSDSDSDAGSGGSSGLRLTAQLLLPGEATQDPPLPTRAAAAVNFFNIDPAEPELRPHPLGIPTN

[23] = target: 1-acyl-sn-glycerol-3-phosphate acyltransferase beta (Homo sapiens, UniProt O15120); test: Inhibition of LPAAT-beta (unknown origin) expressed in Xenopus laevis oocytes incubated for 3 mins; assay type: cell-based, Oocyte
Sequence of 1-acyl-sn-glycerol-3-phosphate acyltransferase beta (O15120 whole entry): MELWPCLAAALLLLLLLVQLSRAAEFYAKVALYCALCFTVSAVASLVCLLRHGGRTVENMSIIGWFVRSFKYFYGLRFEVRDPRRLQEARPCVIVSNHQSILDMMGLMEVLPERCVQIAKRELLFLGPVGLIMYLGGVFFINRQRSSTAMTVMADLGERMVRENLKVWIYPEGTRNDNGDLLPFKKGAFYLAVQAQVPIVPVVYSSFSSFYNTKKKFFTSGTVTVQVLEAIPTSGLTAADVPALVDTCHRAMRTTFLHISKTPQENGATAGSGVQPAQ

[24] = tested on: HeLa; test: Cytotoxicity against human HeLa cells assessed as cell growth inhibition incubated for 96 hrs by WST-8 assay; assay type: functional, cell-based
[25] = Cytotoxicity against human HCO cell assessed as cell growth inhibition incubated for 96 hrs by WST-8 assay; assay type: functional, cell-based
[26] = tested on: HEK293; test: Cytotoxicity against HEK293 cells assessed as cell growth inhibition incubated for 96 hrs by WST-8 assay; assay type: functional, cell-based; settings: Homo sapiens, HEK293, 96 h
[27] = tested on: MEF; test: Cytotoxicity against mouse MEF cells assessed as cell growth inhibition incubated for 96 hrs by WST-8 assay; assay type: functional, cell-based
[28] = tested on: SK-OV-3; test: Cytotoxicity against human SK-OV-3 cells assessed as cell growth inhibition incubated for 96 hrs by WST-8 assay; assay type: functional, cell-based; settings: SK-OV-3, 96 h
[29] = target: 5-hydroxytryptamine receptor 7 (Homo sapiens, UniProt P34969); test: Displacement of [3H]-5Carboxyamidotryptamine from human 5-HT7R expressed in HEK293 cells by radioligand binding assay; assay type: cell-based
Sequence of 5-hydroxytryptamine receptor 7 (P34969 whole entry): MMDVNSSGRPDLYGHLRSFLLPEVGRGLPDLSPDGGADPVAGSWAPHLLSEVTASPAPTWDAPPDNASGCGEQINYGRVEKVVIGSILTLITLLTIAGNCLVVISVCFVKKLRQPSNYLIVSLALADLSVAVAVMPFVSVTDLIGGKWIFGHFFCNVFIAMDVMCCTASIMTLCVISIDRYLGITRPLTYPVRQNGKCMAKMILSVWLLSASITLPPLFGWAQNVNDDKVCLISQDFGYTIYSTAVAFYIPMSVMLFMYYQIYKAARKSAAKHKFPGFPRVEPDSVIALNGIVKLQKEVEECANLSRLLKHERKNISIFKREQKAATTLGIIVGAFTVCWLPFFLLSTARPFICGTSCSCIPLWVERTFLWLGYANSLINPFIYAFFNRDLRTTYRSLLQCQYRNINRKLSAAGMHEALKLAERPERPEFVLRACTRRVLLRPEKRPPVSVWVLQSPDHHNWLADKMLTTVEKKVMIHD

[30] = target: NADPH oxidase 1 (Homo sapiens, UniProt Q9Y5S8); test: Inhibition of human NOX1
Sequence of NADPH oxidase 1 (Q9Y5S8 whole entry): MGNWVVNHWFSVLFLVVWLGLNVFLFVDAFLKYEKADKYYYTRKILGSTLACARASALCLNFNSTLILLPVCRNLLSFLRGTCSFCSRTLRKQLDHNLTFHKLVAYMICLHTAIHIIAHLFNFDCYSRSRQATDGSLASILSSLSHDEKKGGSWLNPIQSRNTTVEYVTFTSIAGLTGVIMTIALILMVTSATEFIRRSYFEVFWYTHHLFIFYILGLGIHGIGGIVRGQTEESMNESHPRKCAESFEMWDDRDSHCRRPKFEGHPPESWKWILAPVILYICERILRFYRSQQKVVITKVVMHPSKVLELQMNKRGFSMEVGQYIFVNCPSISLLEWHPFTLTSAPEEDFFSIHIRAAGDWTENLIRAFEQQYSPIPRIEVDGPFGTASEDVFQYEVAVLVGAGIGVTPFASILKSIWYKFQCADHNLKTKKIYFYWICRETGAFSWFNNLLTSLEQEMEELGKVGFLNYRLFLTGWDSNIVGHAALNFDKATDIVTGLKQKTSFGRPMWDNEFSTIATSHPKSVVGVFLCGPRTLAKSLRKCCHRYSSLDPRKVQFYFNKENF

[31] = target: NADPH oxidase 2 (Homo sapiens, UniProt P04839); test: Inhibition of human NOX2
Sequence of NADPH oxidase 2 (P04839 whole entry): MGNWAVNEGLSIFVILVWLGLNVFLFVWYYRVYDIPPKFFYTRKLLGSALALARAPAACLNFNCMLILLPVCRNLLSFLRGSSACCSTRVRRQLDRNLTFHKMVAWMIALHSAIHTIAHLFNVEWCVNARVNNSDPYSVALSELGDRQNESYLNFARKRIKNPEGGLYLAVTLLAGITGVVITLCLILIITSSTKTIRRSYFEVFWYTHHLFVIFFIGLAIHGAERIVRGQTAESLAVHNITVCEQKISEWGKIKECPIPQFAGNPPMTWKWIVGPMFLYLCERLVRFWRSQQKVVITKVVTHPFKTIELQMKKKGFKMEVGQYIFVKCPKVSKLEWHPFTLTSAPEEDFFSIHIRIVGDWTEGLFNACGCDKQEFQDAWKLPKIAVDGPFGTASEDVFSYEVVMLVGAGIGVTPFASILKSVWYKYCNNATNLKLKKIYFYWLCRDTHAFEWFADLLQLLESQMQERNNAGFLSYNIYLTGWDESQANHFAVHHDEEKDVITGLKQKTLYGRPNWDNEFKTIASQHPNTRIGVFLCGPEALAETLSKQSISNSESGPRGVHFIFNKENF

[32] = target: NADPH oxidase 3 (Homo sapiens, UniProt Q9HBY0); test: Inhibition of human NOX3
Sequence of NADPH oxidase 3 (Q9HBY0 whole entry): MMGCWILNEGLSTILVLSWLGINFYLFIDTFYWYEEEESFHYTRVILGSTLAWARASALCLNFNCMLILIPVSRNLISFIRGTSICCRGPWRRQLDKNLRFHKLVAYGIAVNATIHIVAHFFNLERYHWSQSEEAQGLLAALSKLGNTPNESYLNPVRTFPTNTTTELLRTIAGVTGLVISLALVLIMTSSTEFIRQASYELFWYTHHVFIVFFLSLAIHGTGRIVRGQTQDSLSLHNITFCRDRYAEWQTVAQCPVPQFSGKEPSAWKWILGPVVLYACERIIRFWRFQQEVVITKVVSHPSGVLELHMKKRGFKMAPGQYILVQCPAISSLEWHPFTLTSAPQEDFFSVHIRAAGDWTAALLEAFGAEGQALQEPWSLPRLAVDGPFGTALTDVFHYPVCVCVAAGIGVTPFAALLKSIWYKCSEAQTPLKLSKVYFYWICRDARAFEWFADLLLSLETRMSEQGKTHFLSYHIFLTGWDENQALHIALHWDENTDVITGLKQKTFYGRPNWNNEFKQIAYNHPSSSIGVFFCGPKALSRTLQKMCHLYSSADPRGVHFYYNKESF

[33] = target: NADPH oxidase 4 (Homo sapiens, UniProt Q9NPH5); test: Inhibition of human NOX4
Sequence of NADPH oxidase 4 (Q9NPH5 whole entry): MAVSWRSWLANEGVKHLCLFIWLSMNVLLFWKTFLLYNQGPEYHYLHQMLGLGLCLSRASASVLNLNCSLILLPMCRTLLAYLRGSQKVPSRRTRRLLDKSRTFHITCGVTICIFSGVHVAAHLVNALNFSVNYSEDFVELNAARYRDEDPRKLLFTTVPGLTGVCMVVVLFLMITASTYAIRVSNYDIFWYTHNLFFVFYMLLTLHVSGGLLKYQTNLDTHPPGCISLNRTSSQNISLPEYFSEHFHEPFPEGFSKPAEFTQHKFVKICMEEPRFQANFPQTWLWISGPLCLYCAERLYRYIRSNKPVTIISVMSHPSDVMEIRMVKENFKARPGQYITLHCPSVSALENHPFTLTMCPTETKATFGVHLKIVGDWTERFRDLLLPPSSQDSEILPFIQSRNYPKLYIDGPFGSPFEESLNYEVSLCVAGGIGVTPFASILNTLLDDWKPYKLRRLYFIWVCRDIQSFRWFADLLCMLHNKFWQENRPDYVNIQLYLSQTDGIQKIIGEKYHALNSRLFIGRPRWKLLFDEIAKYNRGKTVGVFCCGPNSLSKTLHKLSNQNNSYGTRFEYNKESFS

[34] = target: NADPH oxidase 5 (Homo sapiens, UniProt Q96PH1); test: Inhibition of human NOX5
Sequence of NADPH oxidase 5 (Q96PH1 whole entry): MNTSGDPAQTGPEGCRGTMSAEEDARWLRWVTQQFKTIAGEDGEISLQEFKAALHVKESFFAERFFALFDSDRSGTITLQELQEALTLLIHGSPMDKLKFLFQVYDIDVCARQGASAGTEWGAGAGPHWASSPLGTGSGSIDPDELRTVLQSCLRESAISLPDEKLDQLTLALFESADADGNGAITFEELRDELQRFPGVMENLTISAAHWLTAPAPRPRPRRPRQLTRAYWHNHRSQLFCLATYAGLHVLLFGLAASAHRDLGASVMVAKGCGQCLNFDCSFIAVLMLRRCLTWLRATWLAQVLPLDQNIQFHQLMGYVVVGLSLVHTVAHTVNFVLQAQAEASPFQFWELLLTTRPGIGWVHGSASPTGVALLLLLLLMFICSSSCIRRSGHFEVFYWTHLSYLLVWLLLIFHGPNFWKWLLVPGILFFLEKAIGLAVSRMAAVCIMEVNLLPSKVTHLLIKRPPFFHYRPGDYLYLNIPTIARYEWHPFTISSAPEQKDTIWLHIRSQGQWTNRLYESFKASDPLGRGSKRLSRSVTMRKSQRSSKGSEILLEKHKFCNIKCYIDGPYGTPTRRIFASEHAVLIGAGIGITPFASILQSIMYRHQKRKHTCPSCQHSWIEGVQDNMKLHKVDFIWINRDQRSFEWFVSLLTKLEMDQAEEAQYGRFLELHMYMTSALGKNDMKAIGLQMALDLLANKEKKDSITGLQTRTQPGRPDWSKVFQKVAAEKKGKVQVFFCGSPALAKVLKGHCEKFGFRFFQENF

[35] = target: T1, Equilibrative nucleoside transporter 1; test: Inhibition of human ENT1 transfected in nucleoside transporter-deficient pig PK-15 cells assessed as inhibition of [3H]-adenosine uptake by liquid scintillation counter analysis; assay type: cell-based
[36] = target: T2, Equilibrative nucleoside transporter 2; test: Inhibition of human ENT2 transfected in nucleoside transporter-deficient pig PK-15 cells assessed as inhibition of [3H]-adenosine uptake by liquid scintillation counter analysis; assay type: cell-based

IC50 [1]: 0.59 µM | IC50 [2]: 77.1 µM
Structure (SMILES): COc1ccc(Nc2nc(N)nc(CN3CCN(c4ccccc4F)CC3)n2)cc1

Structure (SMILES): C[C@H](CCc1nc(N)nc(N(C)C)n1)[C@H]1CC[C@H]2[C@@H]3[C@@H](O)C[C@@H]4C[C@H](O)CC[C@]4(C)[C@H]3CC[C@]12C
IC50 [3]: 28.6 µM | IC50 [4]: 30.3 µM

IC50 [16]: < 0.0125 µM
Structure (SMILES): CCOc1ccc(Cl)cc1-c1nc(N)nc(Nc2ccc(CO)cc2)n1
IC50 [5]: < 0.0125 µM | IC50 [6]: < 0.0125 µM | IC50 [7]: 0.013 µM | IC50 [8]: < 0.0125 µM | IC50 [9]: 0.04 µM | IC50 [10]: 0.025 µM | IC50 [11]: 0.025 µM | IC50 [12]: 0.029 µM | IC50 [13]: 0.025 µM | IC50 [14]: 0.032 µM | IC50 [15]: 0.041 µM

Structure (SMILES): CCN(CC)c1ccc2cc(-c3nc(N)nc(N4CCN(c5ccccc5)CC4)n3)c(=N)oc2c1
IC50 [17]: 1.51 µM | IC50 [18]: 2.14 µM | IC50 [19]: 2.21 µM | IC50 [20]: 2.6 µM | IC50 [21]: 1.66 µM

Ki [22]: 0.028 µM
Structure (SMILES): CC(Oc1ccccc1Cl)c1nc(N)nc(N2CCN(C)CC2)n1 (stereo unspecified)

IC50 [23]: 0.015 µM
Structure (SMILES): CCc1ccc(Nc2nc(N)nc(-c3oc4ccccc4c3C)n2)cc1
IC50 [24]: 0.111 µM | IC50 [25]: 0.063 µM | IC50 [26]: 0.025 µM | IC50 [27]: 0.048 µM | IC50 [28]: 0.079 µM

Ki [29]: 5.71 µM
Structure (SMILES): CCC(Oc1cc(Cl)ccc1Cl)c1nc(N)nc(N2CCN(C)CC2)n1 (stereo unspecified)

IC50 [30]: 7 µM | IC50 [31]: 16 µM | IC50 [32]: 3.2 µM | IC50 [33]: 0.68 µM | IC50 [34]: 0.57 µM
Structure (SMILES): Cc1ccc(N2CCN(c3nc(N)nc(Nc4ccc(C)c(C)c4)n3)CC2)cc1

IC50 [16]: 0.05 µM
Structure (SMILES): Cc1ccc(Cl)cc1-c1nc(N)nc(Nc2ccc(Br)cc2)n1
IC50 [5]: 0.05 µM | IC50 [6]: 0.05 µM | IC50 [7]: 0.07 µM | IC50 [9]: 0.09 µM | IC50 [10]: 0.07 µM | IC50 [11]: 0.075 µM | IC50 [13]: 0.104 µM | IC50 [14]: 0.037 µM | IC50 [15]: 0.1 µM

IC50 [30]: > 10 µM | IC50 [31]: 1.25 µM | IC50 [32]: 1.25 µM
Structure (SMILES): COc1cccc(N2CCN(Cc3nc(N)nc(Nc4ccc(C)c(C)c4)n3)CC2)c1

IC50 [35]: 19.4 µM | IC50 [36]: 4.36 µM | IC50 [1]: 18 µM | IC50 [2]: 1.69 µM
Structure (SMILES): Nc1nc(CN2CCN(c3ccccc3F)CC2)nc(Nc2cccc3ccccc23)n1

— ChEMBL document CHEMBL5214932, “A closer look at N2,6-substituted 1,3,5-triazine-2,4-diamines: Advances in synthesis and biological activities” (Eur J Med Chem, 2022)
